From ChEMBL document CHEMBL3045635, “Synthesis and in vitro antimicrobial evaluation of novel 2-amino-6-(phenylthio)-4-(2-(phenylthio)quinolin-3-yl)pyridine-3,5-dicarbonitriles” (2013)
Values after ≈ are worked out from the molar mass of the structure shown.

Key:
Assay type in all cases: functional
[1] = test system: Streptococcus pneumoniae; test: Antibacterial activity against Streptococcus pneumoniae MTCC 1936 after 24 hr by broth microdilution method; details: MTCC 1936, 24 h
[2] = test system: Vibrio cholerae; test: Antibacterial activity against Vibrio cholerae MTCC 3906 after 24 hr by broth microdilution method; details: MTCC 3906, 24 h
[3] = test system: Salmonella typhi; test: Antibacterial activity against Salmonella enterica subsp. enterica serovar Typhi MTCC 98 after 24 hr by broth microdilution method; details: MTCC 98, 24 h
[4] = test system: Escherichia coli; test: Antibacterial activity against Escherichia coli MTCC 443 after 24 hr by broth microdilution method; details: MTCC 443, 24 h
[5] = test system: Clostridium tetani; test: Antibacterial activity against Clostridium tetani MTCC 449 after 24 hr by broth microdilution method; details: MTCC 449, 24 h
[6] = test system: Candida albicans; test: Antifungal activity against Candida albicans MTCC 227 after 48 hr by broth microdilution method
[7] = test system: Bacillus subtilis; test: Antibacterial activity against Bacillus subtilis MTCC 441 after 24 hr by broth microdilution method; details: MTCC 441, 24 h
[8] = test system: Aspergillus fumigatus; test: Antifungal activity against Aspergillus fumigatus MTCC 3008 after 48 hr by broth microdilution method

Molecule	MIC [1] [µg/mL]	MIC [2] [µg/mL]	MIC [3] [µg/mL]	MIC [4] [µg/mL]	MIC [5] [µg/mL]	MIC ([6]; MTCC 227, 48 h) [µg/mL]	MIC [7] [µg/mL]	MIC ([8]; MTCC 3008, 48 h) [µg/mL]	MIC [6] [µg/mL]	MIC [8] [µg/mL]
O=C(O)c1cn(C2CC2)c2cc(N3CCNCC3)c(F)cc2c1=O [CIPROFLOXACIN]	50 (≈ 151 µM)	25 (≈ 75.4 µM)	25 (≈ 75.4 µM)	25 (≈ 75.4 µM)						
N#Cc1c(N)nc(Sc2ccccc2)c(C#N)c1-c1cc2ccccc2nc1Sc1ccc(Cl)cc1	200 (≈ 383 µM)	100 (≈ 192 µM)	200 (≈ 383 µM)	100 (≈ 192 µM)	200 (≈ 383 µM)	200 (≈ 383 µM)	100 (≈ 192 µM)	1000 (≈ 1920 µM)		
Cc1ccc(Sc2nc3ccc(C)cc3cc2-c2c(C#N)c(N)nc(Sc3ccc(Cl)cc3)c2C#N)cc1	250 (≈ 454 µM)	200 (≈ 364 µM)	100 (≈ 182 µM)	100 (≈ 182 µM)	100 (≈ 182 µM)	1000 (≈ 1820 µM)	250 (≈ 454 µM)	> 1000		
N#Cc1c(N)nc(Sc2ccccc2)c(C#N)c1-c1cc2ccccc2nc1Sc1ccccc1	500 (≈ 1030 µM)	200 (≈ 410 µM)	200 (≈ 410 µM)	250 (≈ 513 µM)	500 (≈ 1030 µM)	250 (≈ 513 µM)	500 (≈ 1030 µM)	500 (≈ 1030 µM)		
NYSTATIN									100	100
N#Cc1c(N)nc(Sc2ccc(Cl)cc2)c(C#N)c1-c1cc2ccccc2nc1Sc1ccc(Cl)cc1	100 (≈ 180 µM)	200 (≈ 359 µM)	200 (≈ 359 µM)	200 (≈ 359 µM)	500 (≈ 898 µM)	500 (≈ 898 µM)	250 (≈ 449 µM)	1000 (≈ 1800 µM)		
Cc1ccc(Sc2nc3ccc(C)cc3cc2C=O)cc1	250 (≈ 852 µM)	125 (≈ 426 µM)	200 (≈ 682 µM)	250 (≈ 852 µM)	250 (≈ 852 µM)	500 (≈ 1700 µM)	250 (≈ 852 µM)	250 (≈ 852 µM)		
O=Cc1cc2ccccc2nc1Sc1ccccc1	200 (≈ 754 µM)	200 (≈ 754 µM)	250 (≈ 942 µM)	200 (≈ 754 µM)	250 (≈ 942 µM)	250 (≈ 942 µM)	200 (≈ 754 µM)	1000 (≈ 3770 µM)		
CC1(C)S[C@@H]2[C@H](NC(=O)[C@H](N)c3ccccc3)C(=O)N2[C@H]1C(=O)O [AMPICILLIN]	100 (≈ 286 µM)	100 (≈ 286 µM)	100 (≈ 286 µM)	100 (≈ 286 µM)	250 (≈ 715 µM)		250 (≈ 715 µM)			
Cc1ccc(Sc2nc3ccccc3cc2C=O)cc1	250 (≈ 895 µM)	250 (≈ 895 µM)	250 (≈ 895 µM)	200 (≈ 716 µM)	250 (≈ 895 µM)	1000 (≈ 3580 µM)	250 (≈ 895 µM)	200 (≈ 716 µM)		
Cc1ccc2nc(Sc3ccc(Cl)cc3)c(C=O)cc2c1	500 (≈ 1590 µM)	100 (≈ 319 µM)	125 (≈ 398 µM)	100 (≈ 319 µM)	500 (≈ 1590 µM)	200 (≈ 637 µM)	500 (≈ 1590 µM)	1000 (≈ 3190 µM)		
Cc1ccc2nc(Sc3ccc(Cl)cc3)c(-c3c(C#N)c(N)nc(Sc4ccccc4)c3C#N)cc2c1	250 (≈ 466 µM)	100 (≈ 187 µM)	200 (≈ 373 µM)	62.5 (≈ 117 µM)	250 (≈ 466 µM)	1000 (≈ 1870 µM)	250 (≈ 466 µM)	> 1000		
Cc1ccc(Sc2nc3ccc(C)cc3cc2-c2c(C#N)c(N)nc(Sc3ccc(C)cc3)c2C#N)cc1	200 (≈ 378 µM)	250 (≈ 472 µM)	125 (≈ 236 µM)	200 (≈ 378 µM)	250 (≈ 472 µM)	250 (≈ 472 µM)	100 (≈ 189 µM)	1000 (≈ 1890 µM)		
Cc1ccc(Sc2nc3ccc(C)cc3cc2-c2c(C#N)c(N)nc(Sc3ccccc3)c2C#N)cc1	250 (≈ 485 µM)	250 (≈ 485 µM)	200 (≈ 388 µM)	100 (≈ 194 µM)	500 (≈ 970 µM)	> 1000	250 (≈ 485 µM)	500 (≈ 970 µM)		
Cc1ccc2nc(Sc3ccc(Cl)cc3)c(-c3c(C#N)c(N)nc(Sc4ccc(Cl)cc4)c3C#N)cc2c1	500 (≈ 876 µM)	200 (≈ 351 µM)	100 (≈ 175 µM)	50 (≈ 87.6 µM)	500 (≈ 876 µM)	500 (≈ 876 µM)	500 (≈ 876 µM)	500 (≈ 876 µM)		
